# According to patent US9169477B2, “Compositions and methods for immunization against bacteria expressing a carbapenemase” (priority 2012, dated 2015):
# B1: rNDM-1: Recombinant NDM-1 protein cloned from K. pneumoniae ATCC BAA-2146, injected with Al(OH)3 adjuvant for immunization (protein, UniProt C7C422 29-270, looked up)
# Metallo-beta-lactamase type 2: GEIRPTIGQQMETGDQRFGDLVFRQLAPNVWQHTSYLDMPGFGAVASNGLIVRDGGRVLVVDTAWTDDQTAQILNWIKQEINLPVALAVVTHAHQDKMGGMDALHAAGIATYANALSNQLAPQEGMVAAQHSLTFAANGWVEPATAPNFGPLKVFYPGPGHTSDNITVGIDGTDIAFGGCLIKDSKAKSLGNLGDADTEHYAASARAFGAAFPKASMIVMSHSAPDSRAAITHTARMADKLR
# Experiments:
# [1] = test system: KPC-expressing Klebsiella pneumoniae strain KPC-KP1; test: Imipenem MIC of the test strain; type: cell-based
# Procedure: (§1) To determine the in vitro effects of the antibody generated in response to rNDM1 and rKPC vaccination, bacteria were incubated overnight at 37° C. in 10% serum plus Mueller-Hinton broth, per CLSI standards. […] Thus, the immune serum was directly cidal for NDM-1 expressing K. pneumoniae.
# [2] = test system: NDM-1-expressing K. pneumoniae (ATCC BAA-2146); test: Imipenem MIC of the test strain; type: cell-based; conditions: Klebsiella pneumoniae, ATCCBAA2146
# Procedure: as §1
# NDM-1 = molecular target: T1, NDM-1 (Klebsiella pneumoniae, UniProt C7C422); test: IgG antibody titers in serum of mice vaccinated with rNDM-1; type: in vivo; conditions: subcutaneous with Al(OH)3 adjuvant, booster at three weeks, serum two weeks after booster, vs control mice
# T1 construct: made in house
# Description: A vaccination program targeting KPC- and NDM-1 was developed. The KPC gene was cloned from a pan-resistant (to all antibiotics, including colistin) clinical lung isolate of K. pneumoniae acquired at a local hospital (KPC-KP1) and the NDM-1 gene was cloned from a clinical K. pneumoniae isolate (ATCC BAA-2146). Recombinant KPC (rKPC) and recombinant NDM-1 (rNDM-1) proteins were expressed, purified, and used for immunization of mice. The immunization of the mice consisted of subcutaneously injecting either rKPC or rNDM-1 with Al(OH)3 adjuvant. A booster immunization for each mouse was administered at three weeks post initial immunization. Two weeks after the booster, serum from immune and control mice were harvested. […] Thus, high titers of immune polyclonal antibodies have been generated against KPC and NDM-1.
Molecule,MIC [1],MIC [2],anti-NDM-1 IgG titers (NDM-1; listed as NDM-1),anti-NDM-1 IgG titers (NDM-1; listed as rNDM1)
C[C@@H](O)[C@H]1C(=O)N2C(C(=O)O)=C(SCCN=CN)C[C@H]12 [imipenem],> 32 µg/mL,> 32 µg/mL,–,–
B1,–,–,marked increase,high titers
